The text below walks through data of BindingDB's records for doi:10.7270/Q2736PBV (Broad Institute, 2009).

Where only a bound is given, the exact number is not on record here.

For orientation: EC50 means the concentration that produces a half-maximal response. Low values mean an effect from little substance, high ones a need for much substance.

The test has as its target T1, Streptokinase A (Streptococcus pyogenes serotype M1, UniProt P10520).
T1 sequence (P10520 whole entry): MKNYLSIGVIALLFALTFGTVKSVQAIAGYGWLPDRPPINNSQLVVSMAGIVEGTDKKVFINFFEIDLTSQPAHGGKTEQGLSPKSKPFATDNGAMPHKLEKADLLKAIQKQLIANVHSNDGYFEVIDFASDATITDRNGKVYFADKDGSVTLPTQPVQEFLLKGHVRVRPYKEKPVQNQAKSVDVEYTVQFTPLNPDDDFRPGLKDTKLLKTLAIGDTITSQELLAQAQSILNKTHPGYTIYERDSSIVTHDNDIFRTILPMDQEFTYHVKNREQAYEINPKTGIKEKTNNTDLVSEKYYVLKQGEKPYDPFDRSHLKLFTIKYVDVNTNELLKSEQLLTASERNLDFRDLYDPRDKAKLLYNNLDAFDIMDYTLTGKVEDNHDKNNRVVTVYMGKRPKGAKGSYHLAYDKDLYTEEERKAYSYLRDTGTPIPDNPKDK
Nature of the test: S. pyogenes streptokinase expression inhibitors, potency, dose response, plasminogen activation absorbance, OD405 (AID 1914).
`CCCOc1ccc(C2C(C(=O)c3cc4ccccc4o3)C(=O)C(=O)N2c2cc(C)on2)cc1OC` (configuration not stated) [MLS001142810]: the EC50 is more than 150 µM.

Turning to `Cc1ccc(C2C(C(=O)c3cc4ccccc4o3)C(=O)C(=O)N2c2cc(C)on2)cc1` (configuration not stated) [MLS001147776], the EC50 was 6.3 µM.

`N#CC(C(=O)CCl)c1nc2c(s1)CCc1ccccc1-2` (configuration not stated) [MLS001171530] displayed an EC50 of more than 150 µM.

In turn, `O=C(Nc1nnc(-c2ccc(Br)cc2)o1)c1cccc(-n2c(O)ccc2O)c1` [MLS001235111] had an EC50 of more than 150 µM.

`COC(=O)/N=N/C=C1\C=[N+]([O-])c2ccccc2N1O` [MLS001333201]: the EC50 is more than 150 µM.

In the case of `COc1ccc(CN=Nc2nc(Nc3ccccc3)nc(N3CCCCC3)n2)cc1OC` [N2-[(3,4-dimethoxyphenyl)methylideneamino]-N4-phenyl-6-piperidin-1-yl-1,3,5-triazine-2,4-diamine], the EC50 was more than 150 µM.

`O=C1C([N+](=O)[O-])=CC(Cl)=CC1/C=N/NC(=O)C(O)(c1ccccc1)c1ccccc1` (configuration not stated) [N''''-[(E)-(3-chloro-5-nitro-6-oxocyclohexa-2,4-dien-1-ylidene)methyl]-2-hydroxy-2,2-diphenylacetohydrazide] gave an EC50 of more than 150 µM.

Regarding `COC1=CC([N+](=O)[O-])=CC(/C=N/NC(=O)C(C)Nc2cccc(C)c2)C1=O` (configuration not stated) [N'-[(1E)-(2-hydroxy-3-methoxy-5-nitrophenyl)methylene]-2-[(3-methylphenyl)amino]propanohydrazide], the EC50 is more than 150 µM.

Compound `O=C1NC(=S)N(C2CCCCC2)C(=O)C1=CNNC(=O)c1ccccc1` [N'-[(E)-(1-cyclohexyl-4,6-dioxo-2-sulfanylidene-1,3-diazinan-5-ylidene)methyl]benzohydrazide] registered an EC50 of more than 150 µM.

Take `O=C1NC(=O)N(Cc2ccccc2)C(=O)C1=CNNC(=O)c1ccccc1` [N'-[(E)-[2,4,6-tris(oxidanylidene)-1-(phenylmethyl)-1,3-diazinan-5-ylidene]methyl]benzohydrazide]: the EC50 is more than 150 µM.

For the compound `CN(C)S(=O)(=O)c1ccc(-c2csc(N=NCc3ccc(O)cc3)n2)cc1` [N,N-dimethyl-4-[2-[2-[(4-oxidanylidenecyclohexa-2,5-dien-1-ylidene)methyl]hydrazinyl]-1,3-thiazol-4-yl]benzenesulfonamide], the EC50 was more than 150 µM.

In turn, `Cc1[nH]c2ccccc2c1CN=Nc1nc2ccccc2[nH]1` [N-(1H-Benzoimidazol-2-yl)-N'-[1-(2-methyl-1H-indol-3-yl)-meth-(E)-ylidene]-hydrazine] showed an EC50 of more than 150 µM.

`O=C1Nc2ccccc2C1=NNc1ccc(S(=O)(=O)Nc2cccc(Cl)c2)cc1[N+](=O)[O-]` [N-(3-chlorophenyl)-3-nitro-4-[2-(2-oxoindol-3-yl)hydrazinyl]benzenesulfonamide] showed an EC50 of 27.4 µM.

`Cc1nc(N=NC(C)c2ccc(Br)cc2)cc(N2CCCCC2)n1` (configuration not stated) [N-[1-(4-bromophenyl)ethylideneamino]-2-methyl-6-piperidin-1-ylpyrimidin-4-amine]: the EC50 amounted to 46.7 µM.

With `CC(NNC(=O)c1cc2ccccc2cc1O)=C1C(=O)c2ccccc2C1=O` [N-[1-[1,3-bis(oxidanylidene)inden-2-yl]ethylideneamino]-3-oxidanyl-naphthalene-2-carboxamide], the EC50 was more than 150 µM.

In turn, `Cc1ccc2c(c1)=C(NNC(=O)c1ccc(NS(=O)(=O)c3cccs3)cc1)C(=O)N=2` [N-[4-[[(5-methyl-2-oxoindol-3-yl)amino]carbamoyl]phenyl]thiophene-2-sulfonamide] came in with an EC50 of more than 150 µM.

`O=C(CCCCCNC(=O)c1ccccc1)NNC1=c2cc(Br)cc(Br)c2=NC1=O` [N-[6-[2-[5,7-bis(bromanyl)-2-oxidanylidene-indol-3-yl]hydrazinyl]-6-oxidanylidene-hexyl]benzamide] displayed an EC50 of more than 150 µM.

Regarding `CN1c2ccsc2C(NNc2ccccc2)=CS1(=O)=O` [N-[(1-methyl-2,2-dioxo-4-thieno[3,2-c]thiazinylidene)amino]aniline], the EC50 was determined as 4.12 µM.

For `Cc1cc(N=NCc2cccc(Br)c2)nc2ccccc12` [N-[(3-bromophenyl)methylideneamino]-4-methyl-2-quinolinamine], the EC50 is more than 150 µM.

`O=[N+]([O-])c1cccc(CN=Nc2nc(N3CCCCC3)nc(N3CCCCC3)n2)c1` [N-[(3-nitrophenyl)methylideneamino]-4,6-bis(1-piperidinyl)-1,3,5-triazin-2-amine] showed an EC50 of 39.4 µM. That is a double-digit micromolar value.

In the case of `CCCCN1C(=O)/C(=N\NC(=O)c2ccccc2NS(=O)(=O)c2cccs2)c2ccccc21` [N-[(Z)-(1-butyl-2-oxoindol-3-ylidene)amino]-2-(thiophen-2-ylsulfonylamino)benzamide], the EC50 was more than 150 µM.

In turn, `Cn1cnnc1SCc1ccc(C(=O)N/N=C2\C(=O)N(Cc3ccc(Cl)cc3)c3ccccc32)cc1` [N-[(Z)-[1-[(4-chlorophenyl)methyl]-2-oxidanylidene-indol-3-ylidene]amino]-4-[(4-methyl-1,2,4-triazol-3-yl)sulfanylmethyl]benzamide] registered an EC50 of 18 µM.

`Cc1ccc(-c2nn(-c3ccccc3)cc2CN=O)cc1` [N-[[3-(4-methylphenyl)-1-phenylpyrazol-4-yl]methylidene]hydroxylamine]: the EC50 was more than 150 µM.

Turning to `CN(C)CCN=CC(C(=O)Nc1ccc(Cl)cc1Cl)C(=O)Nc1ccc(Cl)cc1Cl` [N~1~,N~3~-bis(2,4-dichlorophenyl)-2-({[2-(dimethylamino)ethyl]amino}methylene)malonamide], the EC50 was more than 150 µM.

`N#CC1C(=N)SC(=N)C(C#N)C1c1c(Cl)cccc1Cl` (configuration not stated) [SMR000009709] gave an EC50 of 93.5 µM.

For `CCN(CC)c1ccc(C=NC(C#N)C(=N)C#N)cc1` (configuration not stated) [SMR000023871], the EC50 is more than 150 µM.

With `Fc1ccc(Br)cc1C1CC(c2ccc(Br)s2)=Nc2ncnn21` (configuration not stated) [SMR000032932], the EC50 is more than 150 µM.

The compound `C=CCN1C(=O)NC(=O)C(=C(C)Nc2ccc(N(CC)CC)cc2)C1=O` [SMR000043704] yielded an EC50 of more than 150 µM.

`CCCCN1C(=O)NC(=O)C(=C(C)Nc2ccc(OCC)cc2)C1=O` [SMR000058103]: the EC50 is more than 150 µM.

In turn, `CCc1ccc(C2C(C#N)C(=N)C(C#N)(C#N)C3=CCC(C(C)(C)C)CC32)cc1` (configuration not stated) [SMR000115124] showed an EC50 of 5.84 µM.

`CCCc1sc(N=NCc2ccccn2)nc1-c1ccc(F)cc1` [SMR000116776]: the EC50 was more than 150 µM.

In turn, `CCCc1sc(N=NCc2ccccn2)nc1-c1ccc(Br)cc1` [SMR000116777] came in with an EC50 of more than 150 µM.

`Oc1ccc2ccccc2c1CN=Nc1nnc(-c2ncc[nH]2)c2ccccc12` [SMR000151639] showed an EC50 of 5.52 µM.

For the compound `O=C1C2C(=NC(=S)NC2c2ccc(Cl)cc2)NC(c2ccc(Cl)cc2)N1c1ccc(Cl)cc1` (configuration not stated) [SMR000155440], the EC50 is more than 150 µM.

`CCn1cc(C(=O)O)c(=O)c2cc(F)c(N=NCc3ccccc3[N+](=O)[O-])cc21` [SMR000171611] came in with an EC50 of more than 150 µM.

As to `Cc1cc(=O)n(-c2nc(-c3ccccc3)cs2)[nH]1` [SMR000175888], a half-maximal effect (EC50) was put at 10 µM.

`C=c1[nH][nH]c(=O)c1=Cc1cn(-c2ccccc2)nc1-c1ccc(Cl)cc1` [SMR000193592] registered an EC50 of 4.83 µM.

The compound `CC(Oc1ccc(Cl)cc1Cl)C(=O)Nc1cc(=O)n(-c2ccccc2)[nH]1` (configuration not stated) [SMR000195064] registered an EC50 of 123 µM.

Turning to `COc1ccccc1CN=Nc1cc(C)nc(-n2nc(C)cc2C)n1` [SMR000212744], the EC50 was more than 150 µM.

`Oc1ccc(CN=Nc2nc(-c3ccc(Cl)cc3)cc(C(F)(F)F)n2)cc1` [SMR000212812] came in with an EC50 of 16.3 µM.

In the case of `O=C(CC1=NC2(CCCC2)Cc2ccccc21)C(=O)NN=Cc1ccccc1O` [SMR000219463], the EC50 was more than 150 µM.

`COc1cc(CN=Nc2ncnc3sc4c(c23)CCC4)ccc1O` [SMR000242188] came in with an EC50 of 5.06 µM.

For the compound `CN1C(=O)/C(=N\NC(=O)c2cc(-c3cccs3)nc3ccccc23)c2ccccc21` [SMR000242891], the EC50 is more than 150 µM.

`CN1C(=O)C(=NNc2nc(-c3ccccc3)cs2)c2ccccc21` [SMR000243133]: the EC50 was found to be 7.09 µM.

In the case of `CC(C)c1ccc2c(c1)=C(NNC(=O)c1cccc(S(=O)(=O)N3CCCCC3)c1)C(=O)N=2` [SMR000243307], the EC50 is more than 150 µM.

As to `CC1=C2C(=NC3=C(C(=O)c4ccccc43)C2c2c(C)cc(C)cc2C)N(c2ccccn2)N1` (configuration not stated) [SMR000263933], the response was half-maximal at 22.2 µM (EC50).

The compound `CC(=N)C(C#N)C(=O)COC(=O)c1cc(-c2ccc(Br)cc2)nc2ccccc12` (configuration not stated) [SMR000264784] had an EC50 of 4.43 µM.

In the case of `Cc1cc2nc(-n3c(O)c[nH]c3=S)sc2cc1C` [SMR000272190], the EC50 is more than 150 µM.

In turn, `COc1cccc(CN=Nc2cc(C)nc(-c3ccccc3O)n2)c1O` [SMR000274167] had an EC50 of more than 150 µM.

In turn, `CCC1C(c2ccccc2)NC(c2ccccc2)C(CC)C1N=O` (configuration not stated) [SMR000283074] registered an EC50 of 13.3 µM.

`Oc1nc(Nc2ccccn2)sc1Cc1ccc(Cl)cc1` [SMR000288952] returned an EC50 of more than 150 µM.

`Cc1ccccc1CN=Nc1nc2ccccc2[nH]1` [SMR000305031] displayed an EC50 of more than 150 µM.

On to `O=C(O)COc1ccc(CN=Nc2nc(Nc3ccccc3)nc(N3CCCCC3)n2)cc1` [SMR000312685], for which the EC50 was more than 150 µM.

`CN1C(=O)C(=NNC(=S)Nc2ccccc2F)c2cc(S(=O)(=O)N3CCOCC3)ccc21` [SMR000314843] registered an EC50 of more than 150 µM.

Take `O=C1C(=NNC(=S)Nc2ccccc2F)c2ccccc2N1Cc1ccccc1` [SMR000314861]: the EC50 is more than 150 µM.

On to `Cc1cc(C)n(C(=O)C(C#N)N=Nc2cc(Cl)cc(Cl)c2)n1` (configuration not stated) [SMR000335596], for which the EC50 was more than 150 µM.

For `N#Cc1c(-c2c(Cl)cccc2Cl)noc1CC=Nc1ccc(C(=O)O)cc1` [SMR000337673], the EC50 is more than 150 µM.
